Source: patent US11470844B2, “Vespidae wasp repellent” (KINP CO., LTD, priority 2015, dated 2022)

Experiments:
Type in all cases: in vivo
[1] = tested on: Vespa simillima xanthoptera Cameron worker; experiment: Black ball nest disturbance, Experiment 1; details: previously attacked ball
Method: The experiment was also conducted with utilizing a nest of Vespa simillima xanthoptera Cameron in Kagawa Prefecture Kinbuchi Forest Park in Takamatsu City Kagawa Prefecture on Oct. 24, 2014. Since the nest was also built in the ground, the nest could not be found except for the entrance thereof.
As the above-described Example 2(1), the nest entrance was disturbed by vibrating the black ball in contact with the nest entrance for about 10 seconds. The total number of attacking worker could not be counted, since the number of the worker which attacked to the control black ball using distilled water was much larger than that of the control in the experiment for Vespa mandarinia and the worker moved very rapidly. Thus, the video image was stopped every 30 seconds from the end of the nest entrance disturbance and the number of the worker which alighted on the hemispherical surface of the black ball for attack was counted. During 120 seconds for the experiment, the workers continued to strongly attack to the black ball as the workers constantly flew to and alighted on the black ball for attack and the worker number was not decreased. Such an attack was continued even after the end of the experiment at which the tip of the rod was moved to a place 5 m or more away from the nest, and the attack was finally not observed after about 20 minutes passed from the experiment was finished. Then, 2-phenylethanol was sprayed on the black ball to which Vespa simillima xanthoptera attacked as the test liquid example and the nest entrance was disturbed using the black ball. Although the worker which tried to come close to the black ball was observed, even the closest worker changed the direction in the air 10 to 20 cm from the surface of the black ball and flew away, and no worker which flew to and alighted on the surface of the black ball was found.

[2] = tested on: Vespa analis; experiment: Grape juice attraction trap set outside
Method: (§1) The inventors conducted the experiment at four places in Kagawa Prefecture Kinbuchi Forest Park. The experiment was conducted totally 4 times from Oct. 11 to Nov. 4, 2013, from Nov. 4 to Dec. 7, 2013, from Oct. 1 to Oct. 31, 2014, and from Oct. 31 to Dec. 9, 2014.
(§2) First, four 2 cm square holes were opened on the side of a 2 L capacity PET bottle, and 500 mL of grape juice was added thereto to prepare a control attraction trap to kill a Vespidae worker. As Test liquid example, 25 mL, 5 mL or 1 mL of 2-phenylethanol was added to the grape juice of the traps. […] Since all of the test sites were low mountainous and sloping areas and had many trees, each trap had to be suspended from the branch of live trees. As a result, the horizontal distances between a pair of control example trap and test liquid example trap could not be adjusted to the same, and the distance was from 1 m to 8.5 m. There were not only Vespidae worker but also male Vespidae among the killed Vespidae wasps in the attraction traps; however, the results of the control example and test liquid example were compared on the basis of the number of the killed Vespidae worker, since a Vespidae worker causes a stabbing accident and plays an important role in building a nest. In Table 8, “*” indicates the case where there is a significant difference at p<0.01 in the χ^2 test to which the correction of Yates is applied, and “**” indicates the case where there is a significant difference at p<0.001 in the same test. The result of the first experiment in 2013 is shown in Table 9, the result of the second experiment in 2013 is shown in Table 10, the result of the first experiment using 1% 2-phenylethanol in 2014 is shown in Table 11, the result of the second experiment in 2014 is shown in Table 12, the result of the first experiment using 0.1% 2-phenylethanol in 2014 is shown in Table 13, and the result of the second experiment in 2014 is shown in Table 14. In Tables 9 to 14, “*” indicates the case where there is a significant difference at p<0.05 in the t-test, “**” indicates the case where there is a significant difference at p<0.01 in the same test, and “***” indicates the case where there is a significant difference at p<0.001 in the same test.
(§3) In the first experiment and second experiment, the trap prepared by adding 25 mL of 2-phenylethanol to 500 mL of grape juice was used as the test liquid example of 5% 2-phenylethanol.
(§4) In the first experiment and second experiment, 10 traps prepared by adding 5 mL of 2-phenylethanol to 500 mL of grape juice and 10 traps prepared by adding 0.5 mL of 2-phenylethanol to 500 mL of grape juice were used respectively as the 2 kinds of test liquid examples of 1% 2-phenylethanol and 0.1% 2-phenylethanol to conduct the experiment.

[3] = tested on: Vespa crabro flavofasciata; experiment: Grape juice attraction trap set outside
Method: as §1, §2, §3, §4

[4] = tested on: Vespa ducalis; experiment: Grape juice attraction trap set outside
Method: as §1, §2, §3, §4

[5] = tested on: Polistes jokahamae jokahamae Radoszkowski worker group; experiment: Spray on worker group on nest surface
Method: The experiment involving a worker group of Polistes jokahamae jokahamae Radoszkowski on the exterior wall of a nest found in the campus of Faculty of Agriculture, Kochi University, located on 200 Otsu, Monobe, Nankoku City, Kochi Prefecture, was conducted on Jul. 13, 2015, and the experiment involving a worker of P. jokahamae jokahamae Radoszkowski which collected sap bled from sucking mark by adult Cryptotympana facialis of Zelkova tree stem planted in a private house in Fuseishi-cho, Takamatsu City, Kagawa Prefecture was conducted on July 19 to 22, 2015. In addition, the experiment involving a worker group of P. chinensis antennalis Pe'rez on the exterior wall of a nest found on a branch of a cheesewood planted at a bank of Noda pond located at Fuseishi-cho, Takamatsu City, Kagawa Prefecture was conducted on Jul. 30, 2015.
The experiment was conducted in accordance with the above-described Example 1(1) involving a Vespa mandarinia worker, distilled water as a control example spray and benzyl alcohol as a test liquid example spray were sequentially sprayed on a test object group or a test object worker by using a sprayer, and the behavior from immediately after spraying up to 1 minute later was respectively recorded.

[6] = 0.1% 2-phenylethanol trap, first experiment 2014, 10 traps
[7] = 0.1% 2-phenylethanol trap, second experiment 2014, 10 traps
[8] = 1% 2-phenylethanol trap, first experiment 2014, 10 traps
[9] = 1% 2-phenylethanol trap, second experiment 2014, 10 traps
[10] = 5% 2-phenylethanol trap, first experiment 2013, 18 traps
[11] = 5% 2-phenylethanol trap, second experiment 2013, 18 traps

OCCc1ccccc1 [2-Phenylethanol, 2-phenylethanol]
number of worker alighted on hemispherical surface of black ball for attack ([1]; 30 s after disturbance): 0
number of worker alighted on hemispherical surface of black ball for attack ([1]; 60 s after disturbance): 0
number of worker alighted on hemispherical surface of black ball for attack ([1]; 90 s after disturbance): 0
number of worker alighted on hemispherical surface of black ball for attack ([1]; 120 s after disturbance): 0
Total number of killed worker (Average ± SD), Vespa analis [2, 6]: (0.60 ± 0.70)
Total number of killed worker, Vespa analis [2, 6]: 6
Total number of killed worker (Average ± SD), Vespa analis [2, 7]: (0.00 ± 0.00)
Total number of killed worker, Vespa analis [2, 7]: 0
Total number of killed worker (Average ± SD), Vespa analis [2, 8]: (0.00 ± 0.00)
Total number of killed worker, Vespa analis [2, 8]: 0
Total number of killed worker (Average ± SD), Vespa analis [2, 9]: (0.00 ± 0.00)
Total number of killed worker, Vespa analis [2, 9]: 0
Total number of killed worker (Average ± SD), Vespa analis [2, 10]: (0.00 ± 0.00)
Total number of killed worker, Vespa analis [2, 10]: 0
Total number of killed worker (Average ± SD), Vespa analis [2, 11]: (0.00 ± 0.00)
Total number of killed worker, Vespa analis [2, 11]: 0
Total number of killed worker (Average ± SD), Vespa crabro flavofasciata [3, 6]: (1.50 ± 1.27)
Total number of killed worker, Vespa crabro flavofasciata [3, 6]: 15
Total number of killed worker (Average ± SD), Vespa crabro flavofasciata [3, 7]: (0.00 ± 0.00)
Total number of killed worker, Vespa crabro flavofasciata [3, 7]: 0
Total number of killed worker (Average ± SD), Vespa crabro flavofasciata [3, 8]: (0.00 ± 0.00)
Total number of killed worker, Vespa crabro flavofasciata [3, 8]: 0
Total number of killed worker (Average ± SD), Vespa crabro flavofasciata [3, 9]: (0.00 ± 0.00)
Total number of killed worker, Vespa crabro flavofasciata [3, 9]: 0
Total number of killed worker (Average ± SD), Vespa crabro flavofasciata [3, 10]: (0.00 ± 0.00)
Total number of killed worker, Vespa crabro flavofasciata [3, 10]: 0
Total number of killed worker (Average ± SD), Vespa crabro flavofasciata [3, 11]: (0.00 ± 0.00)
Total number of killed worker, Vespa crabro flavofasciata [3, 11]: 0
Total number of killed worker (Average ± SD), Vespa ducalis [4, 6]: (0.40 ± 0.70)
Total number of killed worker, Vespa ducalis [4, 6]: 4
Total number of killed worker (Average ± SD), Vespa ducalis [4, 7]: (0.00 ± 0.00)
Total number of killed worker, Vespa ducalis [4, 7]: 0
Total number of killed worker (Average ± SD), Vespa ducalis [4, 8]: (0.00 ± 0.00)
Total number of killed worker, Vespa ducalis [4, 8]: 0
Total number of killed worker (Average ± SD), Vespa ducalis [4, 9]: (0.00 ± 0.00)
Total number of killed worker, Vespa ducalis [4, 9]: 0
Total number of killed worker (Average ± SD), Vespa ducalis [4, 10]: (0.00 ± 0.00)
Total number of killed worker, Vespa ducalis [4, 10]: 0
Total number of killed worker (Average ± SD), Vespa ducalis [4, 11]: (0.00 ± 0.00)
Total number of killed worker, Vespa ducalis [4, 11]: 0

OCc1ccccc1 [Benzyl alcohol, benzyl alcohol]
Number of P. jokahamae jokahamae Radoszkowski on nest surface ([5]; 10:02, 1 minute after spraying benzyl alcohol once, 11 workers before): 0
time within which all workers flew away from the nest after spraying ([5]; group of 11 workers): ≤ 10 s
